Legend:
Caco-2/TC7 cells [1] = assay: Annexin V/propidium iodide apoptosis assay, Caco-2/TC7; assay type: cell-based, human; conditions: Caco-2/TC7, IC50 concentration; vehicle 12%
Protocol: Study of cell death. After the appropriate incubation, cells were collected and stained with annexin V-FTIC, according to the manufacturer’s instructions. A negative control was prepared, containing unreacted cells to define the basal level of apoptotic and necrotic or dead cells. After incubation, the cells were transferred to flow-cytometry tubes and washed twice with temperate phosphate-buffered saline (PBS), suspended in 100 μL annexin V binding buffer (10 mM Hepes/NaOH, pH 7.4, 140 mM NaCl, 2.5 mM CaCl2), then 5 μL of annexin V-FITC, and 5 μL of PI was added to each 100 μL of cell suspension. After incubation for 15 min at room temperature in the dark, 400 μL of 1× annexin binding buffer was added and analysed by flow cytometry within one hour. The signal intensity was measured using a FACSARIA BD and analysed using FASCDIVA BD.
This inhibition of apoptosis produces a fast growth and proliferation of cancerous cells. The population of early and late apoptotic cells increased to 35% after treatment with complex 1 in comparison with the vehicle-treated cells (12%). […] Additionally, the effect observed after treating the cells with a dosage equal to the IC50 concentration is time-dependent. […]

Caco-2/TC7 cells [2] = assay: Cell cycle analysis (PI, flow cytometry), Caco-2/TC7; assay type: cell-based, human; conditions: Caco-2/TC7, IC50 concentration, 48 h and 72 h
Protocol: (§1) Cell cycle analysis. After treatment, the cells were fixed in 70% ice-cold ethanol and stored at 4 °C for 24 h. After centrifugation, the cells were rehydrated in PBS (phosphate-buffered saline) and stained with propidium iodide (PI, 50 μg/mL) solution containing RNase A (100 μg/mL). PI-stained cells were analysed for DNA content in a FACSARRAY BD equipped with an argon ion laser. […] Cell cycle distribution was determined on a linear scale. The percentage of cells in cycle phases was determined using MODIFIT 3.0 verity software.
(§2) To investigate the influence of the heteronuclear derivative 1 on the cell cycle distribution of Caco-2 cells, propidium iodide-stained cells were analysed by flow cytometry. The distribution of cells found in each stage of the cell cycle for the control samples was sufficiently homogeneous (Figure 4). For both cell lines, samples analysed after 48 h of incubation had 22% of the cells in the G0/G1 phase, ca. 45% of cells in the synthesis phase, and approximately 30% of cells undergoing the G2 phase or cell division. The low percentage of cells observed in the G0 and G1 phases may be indicative of elevated proliferation and an uncontrolled growth of cancerous cells. It would be of interest to ascertain whether the complexes chosen for the treatments could arrest the cell cycle at phases preceding cell division, thereby inhibiting the proliferation of cancer cells.

Caco-2/PD7 cells = assay: Cell cycle analysis (PI, flow cytometry), Caco-2/PD7; assay type: cell-based, human; conditions: Caco-2/PD7, IC50 concentration, 72 h
Protocol: as §1, §2

[3] = tested on: thioredoxin reductase (TrxR); conditions: undifferentiated Caco-2/TC7, IC50 concentration, 24 h incubation
Protocol: The Caco-2 cell line (TC7 clone) was seeded in a 25 cm^2 flask (2 × 10^6). […] The procedural guidelines of the supplied kit were followed. […] The outcomes were presented as a percentage representing the TrxR activity relative to the control.

[4] = tested on: pIRES2-EGFP (5308 pb) plasmid DNA; assay: Gel electrophoretic mobility of plasmid DNA; assay type: binding; conditions: metal-to-base pair ratios 0.5, 1, 2; 0.8% agarose gel
Protocol: Adducts with pIRES2-EGFP (5308 pb) plasmid DNA (Catalog #6029-1) were prepared by adding the required volume of a freshly prepared solution of metal complexes in MilliQ water. The concentration of pIRES2-EGFP in the reaction mixture was 117 ng/µL, and the complexes’ concentration was varied to give different metal-to-base pair stoichiometries (0.5, 1 and 2). The mobility of the metal complex-treated pIRES2-EGFP samples was analysed by gel electrophoresis on a 0.8% (w/v) agarose gel (Boehringer-Mannheim, Mannheim, Germany) at […] at 25 °C in Tris-acetate/EDTA buffer. The gel was stained for 30 min in […] (w/v) ethidium bromide and the bands were visualised with a UVP gel scanner.
In addition, the interaction of both complexes with DNA was also studied by their ability to modify the electrophoretic mobility of the pIRES2-EGFP (5308 pb) plasmid DNA and compared to cisplatin (Figure 7).

[5] = Solubility in water at 25 °C

Question: With [Cu{Au(Spy)(PTA)}2]PF6 [compound 1] as the substance, how does the “Population of early and late apoptotic cells” value (Caco-2/TC7 cells [1]) read?
Answer: 35%

Question: What about the “Effect on cell cycle distribution” value (Caco-2/TC7 cells [2]) of the same substance?
Answer: arrest of the cell cycle in Caco-2/TC7 cells within the G0/G1 phases

Question: What about the “Effect on cell cycle distribution” value (Caco-2/PD7 cells) of the same substance?
Answer: not enough living cells being found for the analysis

Question: What about the “Effect on TrxR activity” value [3] of the same substance?
Answer: inhibited TrxR activity

Question: And the “Effect on electrophoretic mobility of plasmid DNA” value [4]?
Answer: significant effect on the mobility

Question: And the “S 25 °C, H2O” value [5]?
Answer: < 0.5 g/L
